These results are taken from patent US20200048267A1, “OGA INHIBITOR COMPOUNDS” (Janssen Pharmaceutica NV, priority 2017, published 2020).

Data set [1] has as its target T1, recombinant human Meningioma Expressed Antigen 5 (MGEA5), also referred to as O-GlcNAcase (OGA) (Homo sapiens, UniProt O60502).
T1 construct: Full length OGA enzyme was purchased at OriGene (cat # TP322411); purchased OriGene TP322411
T1 sequence (O60502 1-916): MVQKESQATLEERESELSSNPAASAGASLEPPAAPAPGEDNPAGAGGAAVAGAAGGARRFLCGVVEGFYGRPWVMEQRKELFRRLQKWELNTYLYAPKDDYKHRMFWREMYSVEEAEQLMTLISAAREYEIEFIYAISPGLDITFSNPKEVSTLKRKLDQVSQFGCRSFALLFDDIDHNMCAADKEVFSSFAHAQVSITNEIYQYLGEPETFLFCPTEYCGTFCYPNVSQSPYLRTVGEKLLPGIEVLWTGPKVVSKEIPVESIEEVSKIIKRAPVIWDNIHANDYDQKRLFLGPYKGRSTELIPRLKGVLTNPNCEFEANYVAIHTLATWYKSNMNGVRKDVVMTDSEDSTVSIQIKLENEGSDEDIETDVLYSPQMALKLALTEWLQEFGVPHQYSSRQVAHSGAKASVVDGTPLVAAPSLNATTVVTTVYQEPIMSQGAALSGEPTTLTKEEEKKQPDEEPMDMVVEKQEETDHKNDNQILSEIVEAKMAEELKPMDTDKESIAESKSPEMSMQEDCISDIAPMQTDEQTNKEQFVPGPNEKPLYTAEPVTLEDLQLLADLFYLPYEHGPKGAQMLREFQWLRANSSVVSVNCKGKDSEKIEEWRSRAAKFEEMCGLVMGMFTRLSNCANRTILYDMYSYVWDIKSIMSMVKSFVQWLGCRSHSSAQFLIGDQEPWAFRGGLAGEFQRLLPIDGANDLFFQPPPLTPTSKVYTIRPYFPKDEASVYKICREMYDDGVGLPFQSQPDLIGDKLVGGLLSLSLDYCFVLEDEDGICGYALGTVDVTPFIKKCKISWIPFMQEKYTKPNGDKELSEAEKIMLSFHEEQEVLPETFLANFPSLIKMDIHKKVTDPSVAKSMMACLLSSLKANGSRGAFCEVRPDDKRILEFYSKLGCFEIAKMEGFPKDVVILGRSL
Description: OGA biochemical assay (inhibition of FM-GlcNAc hydrolysis, fluorescence). The note with it: for Emax: read-out: ENZYMATIC Emax (%); for IC50: read-out: ENZYMATIC hOGA, pIC50 (converted).

The target of the next data set is T2, OGA (Homo sapiens, UniProt O60502).
T2 construct: HEK293 cells inducible for P301L mutant human Tau (isoform 2N4R) were established at Janssen; endogenous in cells; host or cells: HEK293 cells inducible for P301L mutant human Tau (2N4R)
T2 sequence (O60502 1-916): T1 sequence (O60502 1-916)
Briefly: OGA cellular assay (ICC detection of O-GlcNAcylated proteins in HEK293 cells inducible for P301L mutant human Tau). The note with it: 6 hours incubation; for EC50: read-out: CELLULAR hOGA, pEC50 (converted). Type of data set: cell-based. Here is the method: HEK293 cells inducible for P301L mutant human Tau (isoform 2N4R) were established at Janssen. Thiamet-G was used for both plate validation (high control) and as reference compound (reference EC50 assay validation). OGA inhibition is evaluated through the immunocytochemical (ICC) detection of O-GlcNAcylated proteins by the use of a monoclonal antibody (CTD110.6; Cell Signaling, #9875) detecting O-GlcNAcylated residues as previously described (Dorfmueller et al. 2010 Chemistry & biology, 17:1250). Inhibition of OGA will result in an increase of O-GlcNAcylated protein levels resulting in an increased signal in the experiment. Cell nuclei are stained with Hoechst to give a cell culture quality control and a rough estimate of immediate compounds toxicity, if any. ICC pictures are imaged with a Perkin Elmer Opera Phenix plate microscope and quantified with the provided software Perkin Elmer Harmony 4.1.
Cells were propagated in DMEM high Glucose (Sigma, #D5796) following standard procedures. 2 days before the cell assay cells are split, counted and seeded in Poly-D-Lysine (PDL) coated 96-wells (Greiner, #655946) plate at a cell density of 12,000 cells per cm^2 (4,000 cells per well) in 100 µl of Assay Medium (Low Glucose medium is used to reduce basal levels of GlcNAcylation) (Park et al. 2014 The Journal of biological chemistry 289:13519). At the day of compound test medium from assay plates was removed and replenished with 90 μl of fresh Assay Medium. 10 μl of compounds at a 10 fold final concentration were added to the wells. Plates were centrifuged shortly before incubation in the cell incubator for 6 hours. DMSO concentration was set to 0.2%. Medium is discarded by applying vacuum. For staining of cells medium was removed and cells washed once with 100 μl D-PBS (Sigma, #D8537). From next step onwards unless other stated assay volume was always 50 μl and incubation was performed without agitation and at room temperature. Cells were fixed in 50 μl of a 4% paraformaldehyde (PFA, Alpha aesar, # 043368) PBS solution for 15 minutes at room temperature. […] Before analysis samples were washed 2 times manually for 5 minutes in ICC base buffer.
Imaging is performed using Perkin Elmer Phenix Opera using a water 20× objective and recording 9 fields per well. Intensity readout at 488 nm is used as a measure of O-GlcNAcylation level of total proteins in wells. To assess potential toxicity of compounds nuclei were counted using the Hoechst staining. IC50-values are calculated using parametric non-linear regression model fitting. As a maximum inhibition Thiamet G at a 200 uM concentration is present on each plate. In addition, a concentration response of Thiamet G is calculated on each plate.

Structures are written as SMILES. Counter-ions that a name gives are not always drawn.

Consider `Cc1cc(N2CCC3(CCN(Cc4ccc5sc(C)nc5c4)C3)C2)nc(C)n1` (stereo not shown) (as salt: HCl) [Product 32], for which the melting point (in general, the temperature of the solid-liquid transition) is 214.8 °C.

Compound `Cc1cc(N2CCC3(CCN(C(C)c4ccc5nccnc5c4)C3)C2)nc(C)n1.Cl` (stereo not shown) [Product 20] came in with a melting point of 173.1 °C. Further, in data set [1], the maximal effect (Emax) – broadly, the greatest response seen or fitted, relative to the assay's reference – was found to be 97.6% and the IC50 is 0.117 µM. On OGA, the Emax came out at 14.9% and the EC50 was > 1000 µM.

The compound `Cc1cc(N2CCC3(CCN(C(C)c4cc5ccccc5n4C)C3)C2)nc(C)n1.Cl` (stereo not shown) [Product 27] gave a melting point of 166.4 °C. Also, in data set [1], the “ENZYMATIC hOGA; pIC50” value amounted to 5.58 and the maximal effect (Emax) came out at 79.4%.

In the case of `Cc1cc(N2CCC3(CCN(C(C)c4ccc5scnc5c4)C3)C2)nc(C)n1.Cl` (stereo not shown) [Product 24], the melting point stood at 218.2 °C. For the same compound, in data set [1], the Emax is 99.3% and the IC50 was 0.049 µM. Besides, at OGA, the Emax worked out at 38% and the EC50 is > 1 µM.

`CC(=O)Nc1ncc(CN2CCC3(C2)CN(c2cc(C)nc(C)c2)C3)s1` [Product 23] registered a melting point of 212.2 °C. Also, in data set [1], the Emax was 100% and the IC50 was 0.302 µM.

In turn, `CC(=O)Nc1ncc(CN2CC3(CCN(c4cc(C)nc(C)c4)C3)C2)s1` [Product 25] showed a melting point of 214.1 °C. For the same compound, in data set [1], the Emax worked out at 57.9% and the IC50 is 8.71 µM.

In turn, `Cc1cc(N2CCC3(CCN(C(C)c4ccc5sc(C)nc5c4)C3)C2)nc(C)n1` (stereo not shown) [Product 31] yielded a melting point of 230 °C. Also, in data set [1], the Emax turned out to be 102% and the IC50 is 0.0339 µM. Further, at OGA, the Emax was 23.7% and the EC50 was > 1 µM.
